From patent US20160333404A1, “METHODS FOR TREATING HCV” (priority 2012, published 2016)

Key:
miR-122 [1] = assay: Serum miR-122 expression by microRNA real-time PCR, Example 2, 3 days polymerase inhibitor monotherapy then with P/R; format: in vivo, human; settings: treatment-naïve GT1 subjects, day 3 vs day 1
Protocol: Sample preparation and microRNA real-time PCR. Serum samples were collected at baseline (“BASE”), week 2 on-treatment (“W2”), week 10 on-treatment (“W10”), and 8 weeks after completing the 12 week regimen (“Post Week 8”) and frozen until analysis. Total RNA was extracted from serum using the Qiagen miRNeasy® Mini Kit. Serum was thawed on ice and centrifuged at 3000×g for 5 min in a 4° C. microcentrifuge. An aliquot of 200 μL of serum per sample was transferred to a new microcentrifuge tube and 750 μl of a Qiazol mixture containing 1.25 μg/mL of MS2 bacteriophage RNA was added to the serum. The tube was mixed and incubated for 5 min followed by the addition of 200 μL chloroform. […]
15 μl RNA was reverse transcribed in 75 μl reactions using the miRCURY LNA™ Universal RT microRNA PCR, Polyadenylation and cDNA synthesis kit (Exiqon). cDNA was diluted 50× and assayed in 10 ul PCR reactions according to the protocol for miRCURY LNA™ Universal RT microRNA PCR; each microRNA was assayed once by qPCR on the microRNA Ready-to-Use PCR, Human panel I and panel II. […] The amplification curves were analyzed using the Roche LC software, both for determination of Cp (by the 2nd derivative method) and for melting curve analysis. All data was normalized to the average of assays detected in all samples (average—assay Cp). […]

miR-122 [2] = assay: Serum miR-122 levels with or without RBV, genotype 2 and 3 patients that achieved SVR (FIG. 7); format: in vivo, human; settings: HCV 2 and 3 subjects who achieve SVR on Compound 1/r with Compound 3; presence n=13, absence n=9
Excerpt: Sample preparation and microRNA real-time PCR. Serum samples were collected at baseline (“Baseline”), day 3 on-treatment (“Day 3”), week 2 on-treatment (“Week 2”), week 10 on-treatment (“Week 10”), and 8 weeks after completing the 12 week regimen (“PT Week 8”) and frozen until analysis. Samples were processed as described in Example 1.
In HCV 2 and 3 subjects who achieve SVR, miR-122 levels are not affected by the presence (n=13) or absence (n=9) of RBV.

Levels of miR-122 after three days of polymerase inhibitor alone (miR-122 [1])	SMILES	effect of presence or absence of RBV on miR-122 levels (miR-122 [2])
decreased	COc1c(-c2ccc3cc(NS(C)(=O)=O)ccc3c2)cc(-n2ccc(=O)[nH]c2=O)cc1C(C)(C)C [Compound 2, N-(6-(3-tert-butyl-5-(2,4-dioxo-3,4-dihydropyrimidin-1(2H)-yl)-2-methoxyphenyl)naphthalen-2-yl)methanesulfonamide]	–
decreased	COc1c(/C=C/c2ccc(NS(C)(=O)=O)cc2)cc(-n2ccc(=O)[nH]c2=O)cc1C(C)(C)C [Compound 4, (E)-N-(4-(3-tert-butyl-5-(2,4-dioxo-3,4-dihydropyrimidin-1(2H)-yl)-2-methoxystyryl)phenyl)methanesulfonamide]	–
–	NC(=O)c1ncn([C@@H]2O[C@H](CO)[C@@H](O)[C@H]2O)n1 [RBV, ribavirin]	not affected
